Measurements reported in article PMC9068772, “Discovery of first-in-class nanomolar inhibitors of heptosyltransferase I reveals a new aminoglycoside target and potential alternative mechanism of action” (Scientific Reports, 2022).
“Also recorded” adds a separate entry of the source.

Columns and labels:
HepI R61A = target: T1, HepI R61A (Escherichia coli, UniProt P24173, R61A); experiment: HepI inhibition, ADP/NADH coupled assay (R61A mutant); format: biochemical, E. coli K12
T1 construct: made in house; host or cells: E. coli One Shot BL-21-AI (stated for HepI in general)
T1 sequence (P24173 whole entry R61A): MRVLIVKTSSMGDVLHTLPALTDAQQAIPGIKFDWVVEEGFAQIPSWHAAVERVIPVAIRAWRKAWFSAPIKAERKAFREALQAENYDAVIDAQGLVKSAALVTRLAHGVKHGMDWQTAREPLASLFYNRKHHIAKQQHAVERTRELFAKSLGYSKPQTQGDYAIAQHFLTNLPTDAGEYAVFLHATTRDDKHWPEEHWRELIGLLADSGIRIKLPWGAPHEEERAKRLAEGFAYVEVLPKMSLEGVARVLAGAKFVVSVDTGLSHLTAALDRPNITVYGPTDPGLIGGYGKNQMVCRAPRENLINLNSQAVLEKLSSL
Description: (§1) As previously reported[11],[14],[15], an ADP/NADH coupled assay was used to monitor HepI activity by monitoring the absorbance change at 340 nm at 37 °C on a Cary Bio 100 UV–Vis Spectrometer. Under normal conditions, the assay buffer was composed of 50 mM HEPES, 50 mM KCl, 10 mM MgCl2, pH 7.5. The coupled enzyme reaction additionally contained 100 μM phosphoenolpyruvate, 100 μM NADH, 100 μM dithiothreitol (DTT) and 0.05 U/μL of both pyruvate kinase and lactate dehydrogenase. 100 μM ADPH was used when ODLA concentration was varied and 100 μM ODLA was used when ADPH was varied. Once a stable baseline was established (~ 5 min), the reaction was initiated by addition of HepI to a final concentration of 50 nM or 100 nM (for high and lower substrate concentrations respectively) and all reported reaction rates are after background subtraction. When running 12 samples at once, plastic cuvette stirs and a repeat pipettor was used to inject 200 μL enzyme. Inhibition of HepI was monitored using the same ADP/NADH coupled assay, all conditions of the assay were the same as previously described unless otherwise stated. Ki values for each of the compounds were determined by varying compound final concentration from 100 μm to 10 nm, and a final concentration of 10 μM ODLA. Competition assays against ADPH were done with excess ODLA (100 μM) and varying ADPH from 2–0.25 μM. Competition assays against ODLA were done with excess ADPH (100 μM) and varying ODLA from 2–0.25 μM. Reactions were started with addition of enzyme and inhibitor was varied from 30–0.01 μM. Kinetics were fit to Lineweaver-Burke (Eq. 1), competitive (Eq. 2), non-competitive (Eq. 3), mixed (Eq. 4), Dixon (Eq. 5), or Cornish-Bowden (Eq. 6) models. All fitting and plotting was done through MATLAB R2018A.1 1/V1/[S]=KM/Vmax[S]+1/Vmax 2 V[S]=Vmax[S]/KM1+[I]/Ki+[S] 3 V[S]=Vmax[S]/1+([I]/Ki)/KM+[S] 4 V[S]=Vmax[S]/KM(1+[I]/Ki)+[S](1+[I]/αKi) 5 1/V[I]=KM1+I/Ki+[S]1+I/αKi/Vmax[S] 6 [S]/V[I]=KM1+I/Ki+[S]1+I/αKi/Vmax

HepI R120A = target: T2, HepI R120A (Escherichia coli, UniProt P24173, R120A); experiment: HepI inhibition, ADP/NADH coupled assay (R120A mutant); format: biochemical, E. coli K12
T2 construct: made in house; host or cells: E. coli One Shot BL-21-AI (stated for HepI in general)
T2 sequence (P24173 whole entry R120A): as the sequence (P24173 whole entry R61A) above, with A61R, R120A counted along it
Description: as §1

| Structure (SMILES) | Ki (HepI R61A) [µM] | ΔΔG (kcal/mol) Exp (HepI R61A; Arg61Ala relative to WT) [kcal/mol] | ΔG (kcal/mol) Exp (HepI R61A; Arg61Ala, from Ki) [kcal/mol] | kcat (HepI R61A; HepI R61A in presence of inhibitor) [s⁻¹] | Ki relative to WT (HepI R61A; HepI R61A vs WT) | Ki (HepI R120A) [µM] | ΔΔG (kcal/mol) Exp (HepI R120A; Arg120Ala relative to WT) [kcal/mol] | ΔG (kcal/mol) Exp (HepI R120A; Arg120Ala, from Ki) [kcal/mol] | Ki relative to WT (HepI R120A; HepI R120A vs WT) |
| --- | --- | --- | --- | --- | --- | --- | --- | --- | --- |
| [H]/N=C(/N)N[C@H]1[C@H](O)[C@@H](O)[C@H](O[C@@H]2O[C@@H](C)[C@](O)(C=O)[C@H]2O[C@@H]2O[C@@H](CO)[C@H](O)[C@@H](O)[C@@H]2NC)[C@@H](N/C(N)=N\[H])[C@@H]1O [Streptomycin] | 7.89 ± 3.59 | 1.5 ± 0.2 | -7.0 ± 0.2 | 0.142 ± 0.031 | increased the Ki values an order of magnitude | – | – | – | – |
| NC[C@H]1O[C@H](O[C@H]2[C@H](O)[C@@H](O[C@H]3O[C@H](CO)[C@@H](O)[C@H](N)[C@H]3O)[C@H](N)C[C@@H]2N)[C@H](N)C[C@@H]1O [Tobramycin] | – | – | – | – | – | 0.422 ± 0.186 | -0.6 ± 0.2 | -8.7 ± 0.2 | ~ twofold tighter; also recorded: lowering of the inhibition constant |
